Like-named read-outs stand apart in the source and are kept apart here.
Columns and labels:
[1] = system: PD1-ss+10aa/Gaussia Luciferase; assay: Dox-Induced PD1-ss-Gluc Assay; format: cell-based; details: Flp-In 293 T-REx cells, 24 hours with doxycycline, read-out: 24 hr Dox Inducible PD1ssGluc 293FRT/TO: Mean IC50
Method in brief: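 Flp-In 293 T-REx, stable line; Tet-regulated PD1-ss+10aa fused to Gaussia luciferase; plated day prior; cpd + doxycycline in DMSO/media; 37 °C, 5% CO2.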

[2] = system: IL-2-FL/Gaussia Luciferase; assay: Dox Inducible IL2-FL-Gluc Assay; format: cell-based; details: for IC50: Flp-In 293 T-REx cells, 24 hours with doxycycline, read-out: 24 hr Dox Inducible IL2FLGluc 293FRT/TO: Mean IC50; for 24 hr Dox Inducible IL2FLGluc 293FRT/TO: IL2/PD1: ratio of IC50s IL2/PD1
Method in brief: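 A hygromycin- and blasticidin-resistant 293 T-REx clone carrying inducible IL-2–Gaussia luciferase (full-length IL-2, residues 1-153) serves as the cell system. After overnight plating, the cells get test compounds together with doxycycline in DMSO/media and are incubated at 37° C, 5% CO2.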

[3] = system: HER3-ss+4aa/Gaussia Luciferase; assay: Dox-Inducible Her3-ss-Gluc Assay; format: cell-based; details: Flp-In 293 T-REx cells, 24 hours with doxycycline; Table 3; read-out: 24 hr Dox Inducible Her3(ss + 4)Gluc 293FRT/TO: Mean IC50
Excerpt: Flp-In 293 T-REx™ cells were transfected with pcDNA™5/FRT/TO plasmid inserted with cDNA encoding Gaussia Luciferase fused to the 3′ end of cDNA encoding HER3 signal sequence plus 4 amino acids (N-[…]-C) (SEQ ID NO: 2). Transfected cells were selected for resistance to the selectable markers Hygromycin and Blasticidin to create a stable cell line that contained the HER3-ss+4aa/Gaussia Luciferase cDNA insert whose expression was regulated under the T-REx™ system. The day before assay, cells were trypsinized and plated in 384-well tissue culture plates. The next day, compound dilutions in DMSO/media containing doxycycline were added to the wells and incubated at 37° C., 5% CO2.
(§1) For chemical structures that include one or more stereoisomers, but are illustrated without indicating stereochemistry, the assay data refers to a mixture of stereoisomers.

[4] = system: TNFα-FL/Gaussia Luciferase; assay: Dox Induced TNFα-FL-Gluc Assay; format: cell-based; details: Table 3
Excerpt: Flp-In 293 T-REx™ cells were transfected with pcDNA™5/FRT/TO plasmid inserted with cDNA encoding Gaussia Luciferase fused to the 3′ end of cDNA encoding full length TNFα (amino acids 1-233). Transfected cells were selected for resistance to the selectable markers Hygromycin and Blasticidin to create a stable cell line that contained the TNFα-FL/Gaussia Luciferase cDNA insert whose expression was regulated under the T-REx™ system. The day before assay, cells were trypsinized and plated in 384-well tissue culture plates. The next day, compound dilutions in DMSO/media containing doxycycline were added to the wells and incubated at 37° C., 5% CO2.
as §1

[5] = system: multiple myeloma cell line NCI-H929; assay: H929 Cell Viability Assay; format: cell-based, human; details: Homo sapiens; NCI-H929 cells, 48 hours, Celltiter-Glo; read-out: 48 hr H929 Viability Celltiter-Glo: Mean EC50
Method in brief: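 A 48-hour compound treatment of cells in 10% FBS RPMI medium was followed by luciferase-based viability quantification.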

[6] = system: multiple myeloma cell line U266B1; assay: U266 Cell Viability Assay; format: cell-based; details: Homo sapiens, U-266; U266B1 cells, 48 hours, Celltiter-Glo; read-out: 48 hr U266 Viability Celltiter-Glo: Mean EC50
Method in brief: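 After growth in serum-supplemented RPMI 1640, cells received serially diluted compound in DMSO/media and were kept 48 hours before a CellTiter-Glo luminescence readout.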

[7] = Liver Microsome Stability Assay, mouse; format: in vitro ADME; details: mouse liver microsomes 1.0 mg/mL, 1.0 uM compound, 37° C., 1 mM NADPH
Method in brief: (§2)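 Stability was judged from samples quenched at 0 and 30 minutes after incubating 1.0 uM compound with 1.0 mg/mL liver microsomes at 37° C, plus or minus 1 mM NADPH, in 0.1 M potassium phosphate containing 0.4% DMSO.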

[8] = Liver Microsome Stability Assay, rat; format: in vitro ADME; details: rat liver microsomes 1.0 mg/mL, 1.0 uM compound, 37° C., 1 mM NADPH
Method in brief: as §2

[9] = Liver Microsome Stability Assay, monkey; format: in vitro ADME; details: monkey liver microsomes 1.0 mg/mL, 1.0 uM compound, 37° C., 1 mM NADPH
Method in brief: as §2

[10] = Liver Microsome Stability Assay, human; format: in vitro ADME; details: human liver microsomes 1.0 mg/mL, 1.0 uM compound, 37° C., 1 mM NADPH
Method in brief: as §2

CD47(ss + 10)Gluc = assay: Dox-Induced CD47-ss-Gluc Assay; format: cell-based; details: Flp-In 293 T-REx cells, 24 hours with doxycycline; Table 1; read-out: 24 hr Dox Inducible CD47(ss + 10)Gluc 293FRT/TO: Mean IC50
[11] = system: IL6R-ss+10aa/Gaussia Luciferase; assay: Dox-induced IL-6R-ss-Gluc Assay; format: cell-based; details: Table 1; for IC50: Flp-In 293 T-REx cells, 24 hours with doxycycline, read-out: 24hr Dox Inducible IL6R(ss + 10)Gluc 293FRT/TO: Mean IC50; for 24hr Dox Inducible IL6R(ss + 10)Gluc 293FRT/TO: IL6R/PD1: ratio of IC50s IL6R/PD1
Method in brief: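 Flp-In 293 T-REx cells stably carrying a doxycycline-inducible IL6R signal sequence+10 aa fused to Gaussia luciferase. Cells plated the day before; compound dilutions added in DMSO/media containing doxycycline and incubated at 37 °C, 5% CO2.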

Row | Structure (SMILES) | IC50 ([1]; Table 3) | IC50 ([2]; Table 3) | 24 hr Dox Inducible IL2FLGluc 293FRT/TO: IL2/PD1 ([2]; Table 3) | IC50 [3] | IC50 ([4]; Flp-In 293 T-REx cells, 24 hours with doxycycline, read-out: 24 hr Dox Inducible TNFaFLGluc 293FRT/TO: Mean IC50) | 24 hr Dox Inducible TNFaFLGluc 293FRT/TO: TNF/PD1 ([4]; ratio of IC50s TNF/PD1) | EC50 [5] | EC50 [6] | Liver Microsome Stability (Multiple Species): Mouse - % Remaining after 30 min w/ NADPH (%) [7] | Liver Microsome Stability (Multiple Species): Rat - % Remaining after 30 min w/ NADPH (%) [8] | Liver Microsome Stability (Multiple Species): Monkey - % Remaining after 30 min w/ NADPH (%) [9] | Liver Microsome Stability (Multiple Species): Human - % Remaining after 30 min w/ NADPH (%) [10] | IC50 ([1]; Table 1) | IC50 ([2]; Table 1) | 24 hr Dox Inducible IL2FLGluc 293FRT/TO: IL2/PD1 ([2]; Table 1) | IC50 (CD47(ss + 10)Gluc) | IC50 [11] | 24hr Dox Inducible IL6R(ss + 10)Gluc 293FRT/TO: IL6R/PD1 [11]
1 | O=C(Nc1nc(/C=C/c2ncn(C3CC3)c2Cl)cs1)c1cc(Cl)cn1Cc1ccnc(F)c1 [Compound A12] | 11 nM | 1530 nM | 150 | 1150 nM | 8540 nM | 807 | 10200 nM | > 25000 nM | 78% | 17% | 5% | 8% |  |  |  |  |  | 
2 | CC(C)n1cnc(/C=C/c2csc(NC(=O)c3cccn3Cc3ccnc(F)c3)n2)c1C#N [Compound B20, (E)-N-(4-(2-(5-cyano-1-isopropyl-1H-imidazol-4-yl)vinyl)thiazol-2-yl)-1-((2-fluoropyridin-4-yl)methyl)-1H-pyrrole-2-carboxamide] |  |  |  |  |  |  | 8360 nM | 15700 nM | 5% | 33% | <1% | <1% | 9 nM | 1530 nM | 170.0 | 1520 nM | 1320 nM | 146
3 | [2H]c1nc(/C=C/c2csc(NC(=O)c3cccn3Cc3ccnc(F)c3)n2)cn1C(C)C [Compound B21] |  |  |  |  |  |  | 17500 nM | 24200 nM | 11% | 20% | <1% | <1% | 65 nM | > 25000 nM | >380 | > 25000 nM | > 25000 nM | >385
4 | O=C(Nc1nc(/C=C/C2CCOC2)cs1)c1cccn1Cc1ccnc(F)c1 (stereo not shown) [Compound B22, (E)-1-((2-fluoropyridin-4-yl)methyl)-N-(4-(2-(tetrahydrofuran-3-yl)vinyl)thiazol-2-yl)-1H-pyrrole-2-carboxamide] |  |  |  |  |  |  | > 25000 nM | > 25000 nM | 41% | 1% | <1% | 9% | > 25000 nM | > 25000 nM |  | > 25000 nM | > 25000 nM | 
5 | O=C(Nc1nc(/C=C/c2ccc3occc3c2)cs1)c1cccn1Cc1ccnc(F)c1 [Compound B27, (E)-N-(4-(2-(benzofuran-5-yl)vinyl)thiazol-2-yl)-1-((2-fluoropyridin-4-yl)methyl)-1H-pyrrole-2-carboxamide] |  |  |  |  |  |  | > 25000 nM | > 25000 nM | 40% | 3% | 8% | 27% | 144 nM | 1040 nM | 5.2 | 1030 nM | 892 nM | 6
6 | O=C(Nc1nc(/C=C/c2cccc(F)c2)cs1)c1cccn1Cc1ccnc(F)c1 [Compound B28, (E)-1-((2-fluoropyridin-4-yl)methyl)-N-(4-(3-fluorostyryl)thiazol-2-yl)-1H-pyrrole-2-carboxamide] |  |  |  |  |  |  | 15000 nM | > 25000 nM | 72% | 39% | 22% | 70% | 172 nM | 1090 nM | 6.1 | 1000 nM | 1200 nM | 7

Source: patent US20250171434A1, “SEC61 INHIBITORS AND USE THEREOF” (KEZAR LIFE SCIENCES, INC., priority 2022, published 2025)
